Counter-ions that a name gives are not always drawn.
melting point [°C]	Structure (SMILES)
218 to 222	Cc1nc(NC(C2CC2)C2CC2)c2c(C)[nH]c(-c3ccc(Cl)cc3Cl)c2n1 (as salt: HCl) [Example 6]
184 to 185	CCC(CC)Nc1nc(C)nc2c1C(C)(O)N=C2c1ccc(Cl)cc1Cl (centres unmarked) [Example 7, 7-(2,4-Dichloro-phenyl)-4-(1-ethyl-propylamino)-2,5-dimethyl-5H-pyrrolo[3,4-d]pyrimidin-5-ol]
